What was measured:
h-TGR5 = biological target: T1, h-TGR5 (Homo sapiens, UniProt Q8TDU6); experiment: TGR5 cAMP Assay using Cisbio cAMP Dynamic2 htrf kit (hTGR5CRE-luc HEK 293 cells); format: cell-based; conditions: h-TGR5 cAMP EC50, Table 1; read-out: cAMP (EC50)
T1 construct: expressed in transfected cells
T1 sequence (Q8TDU6 1-330): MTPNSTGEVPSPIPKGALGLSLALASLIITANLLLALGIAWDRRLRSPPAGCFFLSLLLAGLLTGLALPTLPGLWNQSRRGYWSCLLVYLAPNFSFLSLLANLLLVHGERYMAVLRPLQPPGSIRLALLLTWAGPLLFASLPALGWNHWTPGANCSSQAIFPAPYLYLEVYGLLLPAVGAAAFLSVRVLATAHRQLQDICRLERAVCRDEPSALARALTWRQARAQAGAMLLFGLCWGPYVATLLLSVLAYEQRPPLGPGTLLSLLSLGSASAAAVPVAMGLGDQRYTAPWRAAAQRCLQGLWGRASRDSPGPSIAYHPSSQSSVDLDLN
Outline: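 […], 4000 hTGR5CRE-luc HEK 293 cells per well, with 0.5 mM IBMX and d2-cAMP, were incubated 30 min at room temperature with compounds in 8-point half-log series, in quadruplicate.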

human TGR5 (h-TGR5) = biological target: T2, human TGR5 (h-TGR5) (Homo sapiens, UniProt Q8TDU6); experiment: TGR5/CRE-Luciferiase Assay (HEK 293 hTGR5/CRE-Luc cells); format: cell-based; conditions: h-TGR5 CRE-Luc EC50, Table 1; read-out: CRE-Luc (EC50)
T2 construct: expressed in transfected cells
T2 sequence (Q8TDU6 1-330): T1 sequence (Q8TDU6 1-330)
Outline: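 HEK293 cells stably carrying hTGR5 and a CRE-luciferase reporter were exposed to serially diluted compounds (diluted in DMEM with 5% DMSO) for 6 h. Cells were then lysed in luciferase buffer, luminescence was read, and EC50 values were derived from dose-response curves.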

## CC(C)(c1ccc(F)cc1)c1cnc(SCc2ccc(S(=O)(=O)NC(=O)NN3CCCC3)cc2Cl)n1-c1ccc(F)c(Cl)c1 [3-chloro-4-[({1-(3-chloro-4-fluorophenyl)-5-[1-(4-fluorophenyl)-1-methylethyl]-1H-imidazol-2-yl}thio)methyl]-N-[(pyrrolidin-1-ylamino)carbonyl]benzenesulfonamide]
h-TGR5
  EC50: 1000 to 10000 nM
Human TGR5 (h-TGR5)
  EC50: 100 to 1000 nM

## CC(C)(c1ccc(Cl)c(Cl)c1)c1cnc(SCc2ccc(S(=O)(=O)NC(=O)NN3CCCC3)cc2Cl)n1-c1ncc(F)cc1F [3-chloro-4-[({5-[1-(3,4-dichlorophenyl)-1-methylethyl]-1-(3,5-difluoropyridin-2-yl)-1H-imidazol-2-yl}thio)methyl]-N-[(pyrrolidin-1-ylamino)carbonyl]benzenesulfonamide]
h-TGR5
  EC50: 1000 to 10000 nM
Human TGR5 (h-TGR5)
  EC50: 100 to 1000 nM

## CC(C)(c1ccc(Cl)c(Cl)c1)c1cnc(SCc2c(F)cc(C(=O)O)cc2Cl)n1-c1ccc(F)cc1 [3-chloro-4-[({5-[1-(3,4-dichlorophenyl)-1-methylethyl]-1-(4-fluorophenyl)-1H-imidazol-2-yl}thio)methyl]-5-fluorobenzoic acid]
h-TGR5
  EC50: 100 to 1000 nM
Human TGR5 (h-TGR5)
  EC50: < 100 nM

## CC(C)(c1ccc(Cl)c(Cl)c1)c1cnc(SCc2ccc(S(=O)(=O)NC(=O)NN3CCCC3)cc2Cl)n1-c1ccc(F)cc1 [3-chloro-4-[({5-[1-(3,4-dichlorophenyl)-1-methylethyl]-1-(4-fluorophenyl)-1H-imidazol-2-yl}thio)methyl]-N-[(pyrrolidin-1-ylamino)carbonyl]benzenesulfonamide]
h-TGR5
  EC50: 1000 to 10000 nM
Human TGR5 (h-TGR5)
  EC50: 100 to 1000 nM

## CC(C)NC(=O)NS(=O)(=O)c1ccc(CSc2ncc(C(C)(C)c3ccc(Cl)c(Cl)c3)n2-c2ccc(F)cc2)c(Cl)c1 [3-chloro-4-[({5-[1-(3,4-dichlorophenyl)-1-methylethyl]-1-(4-fluorophenyl)-1H-imidazol-2-yl}thio)methyl]-N-{[(1-methylethyl)amino]carbonyl}benzenesulfonamide]
h-TGR5
  EC50: 100 to 1000 nM
Human TGR5 (h-TGR5)
  EC50: 100 to 1000 nM

## CC(C)(c1ccc(Cl)c(Cl)c1)c1cnc(SCc2ccc(S(N)(=O)=O)cc2Cl)n1-c1ccc(F)cc1 [3-chloro-4-[({5-[1-(3,4-dichlorophenyl)-1-methylethyl]-1-(4-fluorophenyl)-1H-imidazol-2-yl}thio)methyl]benzenesulfonamide]
h-TGR5
  EC50: 100 to 1000 nM
Human TGR5 (h-TGR5)
  EC50: 100 to 1000 nM

## CC(C)(c1ccc(Cl)c(Cl)c1)c1cnc(SCc2ccc(S(=O)(=O)O)cc2Cl)n1-c1ccc(F)cc1 [3-chloro-4-[({5-[1-(3,4-dichlorophenyl)-1-methylethyl]-1-(4-fluorophenyl)-1H-imidazol-2-yl}thio)methyl]benzenesulfonic acid]
h-TGR5
  EC50: 100 to 1000 nM
Human TGR5 (h-TGR5)
  EC50: 100 to 1000 nM

## CC(C)(c1ccc(Cl)c(Cl)c1)c1cnc(SCc2ccc(C(=O)O)cc2Cl)n1-c1ccc(F)cc1 [3-chloro-4-[({5-[1-(3,4-dichlorophenyl)-1-methylethyl]-1-(4-fluorophenyl)-1H-imidazol-2-yl}thio)methyl]benzoic acid]
h-TGR5
  EC50: 100 to 1000 nM
Human TGR5 (h-TGR5)
  EC50: 100 to 1000 nM

## CC(C)(c1ccc(Cl)c(Cl)c1)c1cnc(SCc2ccc(S(=O)(=O)NC(=O)NN3CCCC3)cc2Cl)n1-c1ccc(F)cn1 [3-chloro-4-[({5-[1-(3,4-dichlorophenyl)-1-methylethyl]-1-(5-fluoropyridin-2-yl)-1H-imidazol-2-yl}thio)methyl]-N-[(pyrrolidin-1-ylamino)carbonyl]benzenesulfonamide]
h-TGR5
  EC50: 100 to 1000 nM
Human TGR5 (h-TGR5)
  EC50: 100 to 1000 nM

## COc1cc(-n2c(C(C)(C)c3ccc(Cl)c(Cl)c3)cnc2SCc2c(F)cc(C(=O)O)cc2Cl)ccc1F [3-chloro-4-[({5-[1-(3,4-dichlorophenyl)-1-methylethyl]-1-[4-fluoro-3-(methyloxy)phenyl]-1H-imidazol-2-yl}thio)methyl]-5-fluorobenzoic acid]
h-TGR5
  EC50: < 100 nM
Human TGR5 (h-TGR5)
  EC50: < 100 nM

## COc1cc(-n2c(C(C)(C)c3ccc(Cl)c(Cl)c3)cnc2SCc2ccc(S(=O)(=O)NC(=O)NN3CCOCC3)cc2Cl)ccc1F [3-chloro-4-[({5-[1-(3,4-dichlorophenyl)-1-methylethyl]-1-[4-fluoro-3-(methyloxy)phenyl]-1H-imidazol-2-yl}thio)methyl]-N-[(morpholin-4-ylamino)carbonyl]benzenesulfonamide]
h-TGR5
  EC50: 100 to 1000 nM
Human TGR5 (h-TGR5)
  EC50: 100 to 1000 nM

## COc1cc(-n2c(C(C)(C)c3ccc(Cl)c(Cl)c3)cnc2SCc2ccc(S(=O)(=O)NC(=O)NN3CCCC3)cc2Cl)ccc1F [3-chloro-4-[({5-[1-(3,4-dichlorophenyl)-1-methylethyl]-1-[4-fluoro-3-(methyloxy)phenyl]-1H-imidazol-2-yl}thio)methyl]-N-[(pyrrolidin-1-ylamino)carbonyl]benzenesulfonamide]
h-TGR5
  EC50: 1000 to 10000 nM
Human TGR5 (h-TGR5)
  EC50: 100 to 1000 nM

## Cc1cc(-n2c(C(C)(C)c3ccc(F)c(F)c3)cnc2SCc2ccc(S(=O)(=O)NC(=O)NN3CCCC3)cc2Cl)ccc1F [3-chloro-4-[({5-[1-(3,4-difluorophcnyl)-1-methylethyl]-1-(4-fluoro-3-methylphenyl)-1H-imidazol-2-yl}thio)methyl]-N-[(pyrrolidin-1-ylamino)carbonyl]benzenesulfonamide]
h-TGR5
  EC50: 1000 to 10000 nM
Human TGR5 (h-TGR5)
  EC50: 100 to 1000 nM

## CC(C)(c1ccc(F)c(F)c1)c1cnc(SCc2ccc(S(=O)(=O)NC(=O)NN3CCCC3)cc2Cl)n1-c1ccc(F)cc1 [3-chloro-4-[({5-[1-(3,4-difluorophenyl)-1-methylethyl]-1-(4-fluorophenyl)-1H-imidazol-2-yl}thio)methyl]-N-[(pyrrolidin-1-ylamino)carbonyl]benzenesulfonamide]
h-TGR5
  EC50: 1000 to 10000 nM
Human TGR5 (h-TGR5)
  EC50: 100 to 1000 nM

## CC(C)NC(=O)NS(=O)(=O)c1ccc(CSc2ncc(C(C)(C)c3ccc(F)c(F)c3)n2-c2ccc(F)cc2)c(Cl)c1 [3-chloro-4-[({5-[1-(3,4-difluorophenyl)-1-methylethyl]-1-(4-fluorophenyl)-1H-imidazol-2-yl}thio)methyl]-N-{[(1-methylethyl)amino]carbonyl}benzenesulfonamide]
h-TGR5
  EC50: 100 to 1000 nM
Human TGR5 (h-TGR5)
  EC50: 100 to 1000 nM

## CC(C)(c1ccc(F)c(F)c1)c1cnc(SCc2ccc(S(N)(=O)=O)cc2Cl)n1-c1ccc(F)cc1 [3-chloro-4-[({5-[1-(3,4-difluorophenyl)-1-methylethyl]-1-(4-fluorophenyl)-1H-imidazol-2-yl}thio)methyl]benzenesulfonamide]
h-TGR5
  EC50: 100 to 1000 nM
Human TGR5 (h-TGR5)
  EC50: 100 to 1000 nM

## COc1cc(-n2c(C(C)(C)c3ccc(F)c(F)c3)cnc2SCc2ccc(S(=O)(=O)NC(=O)NN3CCCC3)cc2Cl)ccc1F [3-chloro-4-[({5-[1-(3,4-difluorophenyl)-1-methylethyl]-1-[4-fluoro-3-(methyloxy)phenyl]-1H-imidazol-2-yl}thio)methyl]-N-[(pyrrolidin-1-ylamino)carbonyl]benzenesulfonamide]
h-TGR5
  EC50: 100 to 1000 nM
Human TGR5 (h-TGR5)
  EC50: 100 to 1000 nM

## CC(C)(c1ccc(F)c(Cl)c1)c1cnc(SCc2ccc(S(=O)(=O)NC(=O)NN3CCCC3)cc2Cl)n1-c1ccc(F)cc1 [3-chloro-4-[({5-[1-(3-chloro-4-fluorophenyl)-1-methylethyl]-1-(4-fluorophenyl)-1H-imidazol-2-yl}thio)methyl]-N-[(pyrrolidin-1-ylamino)carbonyl]benzenesulfonamide]
h-TGR5
  EC50: 100 to 1000 nM
Human TGR5 (h-TGR5)
  EC50: 100 to 1000 nM

From US8785488B2 (Exelixis Patent Company LLC, priority 2009, dated 2014)
